Data published in patent US10875860B2, “Azaindenoisoquinoline compounds and uses thereof” (Purdue Research Foundation, priority 2016, dated 2020).
Like-named read-outs stand apart in the source and are kept apart here.

Key:
[1] = test system: NCI-60 panel of human cancer cell lines; assay: NCI-60 screen, mean graph midpoint over all cell lines; conditions: for GI50: Homo sapiens
MCF-7 = assay: NCI-60 cytotoxicity, MCF-7; conditions: Homo sapiens, MCF7, read-out: Cytotoxicity (GI50) Breast MCF-7
OVCAR-3 = assay: NCI-60 cytotoxicity, OVCAR-3; conditions: Homo sapiens, OVCAR-3, read-out: Cytotoxicity (GI50) Ovarian Ovcar-3
Top1 = target: T1, Top1 (Homo sapiens, UniProt P11387); assay: Top1-mediated DNA cleavage assay; format: biochemical; set-up: Top1 inhibitory activity level / Top1 inhibitory activity score: key to the marks not given beside the values; conditions: for Enzyme Inhibitory Activity Top1: DNA cleavage relative to 1 μM MJ-III-65 (19) and 1 μM camptothecin (18); for Top1 inhibitory activity level: series 1
T1 sequence (P11387 1-765): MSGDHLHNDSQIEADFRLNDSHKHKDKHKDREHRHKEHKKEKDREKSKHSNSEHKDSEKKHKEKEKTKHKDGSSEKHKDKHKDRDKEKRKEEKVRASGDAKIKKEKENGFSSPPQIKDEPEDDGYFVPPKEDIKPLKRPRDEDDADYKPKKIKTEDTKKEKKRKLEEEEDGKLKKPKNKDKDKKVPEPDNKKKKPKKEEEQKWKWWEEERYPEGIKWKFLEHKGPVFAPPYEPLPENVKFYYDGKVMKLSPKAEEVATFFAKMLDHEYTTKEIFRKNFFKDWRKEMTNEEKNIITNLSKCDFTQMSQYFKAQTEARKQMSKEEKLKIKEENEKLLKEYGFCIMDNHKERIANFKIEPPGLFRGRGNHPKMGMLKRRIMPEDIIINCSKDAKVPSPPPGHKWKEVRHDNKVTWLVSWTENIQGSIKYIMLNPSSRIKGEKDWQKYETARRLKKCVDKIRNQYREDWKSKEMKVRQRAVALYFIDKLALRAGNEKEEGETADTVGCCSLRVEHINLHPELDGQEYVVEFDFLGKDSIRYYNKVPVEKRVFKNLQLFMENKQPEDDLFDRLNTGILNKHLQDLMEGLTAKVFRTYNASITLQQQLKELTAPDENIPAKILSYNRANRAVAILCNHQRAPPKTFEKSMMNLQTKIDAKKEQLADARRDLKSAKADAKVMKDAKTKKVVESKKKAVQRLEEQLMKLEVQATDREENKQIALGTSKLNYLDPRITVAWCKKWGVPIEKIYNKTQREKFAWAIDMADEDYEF

Tdp1 = Tdp1 (Homo sapiens, UniProt Q9NUW8); assay: Recombinant Tdp1 assay; format: biochemical
SF-539 = assay: NCI-60 cytotoxicity, SF-539; conditions: Homo sapiens, SF-539, read-out: Cytotoxicity (GI50) CNS SF-539
HOP-62 = assay: NCI-60 cytotoxicity, HOP-62; conditions: Homo sapiens, HOP-62, read-out: Cytotoxicity (GI50) Lung HOP-62
UACC-62 = assay: NCI-60 cytotoxicity, UACC-62; conditions: Homo sapiens, UACC-62, read-out: Cytotoxicity (GI50) Melanoma UACC-62
recombinant human TDP2 = target: T2, recombinant human TDP2 (Homo sapiens, UniProt O95551); assay: Recombinant Tdp2 assay; format: biochemical
T2 sequence (O95551 1-362): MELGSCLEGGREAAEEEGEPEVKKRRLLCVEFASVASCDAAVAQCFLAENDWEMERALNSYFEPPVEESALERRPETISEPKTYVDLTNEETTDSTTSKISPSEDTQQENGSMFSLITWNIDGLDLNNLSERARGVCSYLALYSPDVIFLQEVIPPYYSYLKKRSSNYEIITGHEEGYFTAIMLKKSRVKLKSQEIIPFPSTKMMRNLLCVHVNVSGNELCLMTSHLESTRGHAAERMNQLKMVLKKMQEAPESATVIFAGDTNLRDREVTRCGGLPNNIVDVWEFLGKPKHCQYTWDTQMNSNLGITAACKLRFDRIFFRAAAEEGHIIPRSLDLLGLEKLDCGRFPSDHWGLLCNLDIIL

SN12C = assay: NCI-60 cytotoxicity, SN12C; conditions: Homo sapiens, read-out: Cytotoxicity (GI50) Renal SN12C
DU-145 = assay: NCI-60 cytotoxicity, DU-145; format: cell-based; conditions: Homo sapiens, single determinations, Table 2, read-out: Cytotoxicity (GI50) Prostate DU-145
HCT-116 = assay: NCI-60 cytotoxicity, HCT-116; format: cell-based; conditions: Homo sapiens, single determinations, Table 2, read-out: Cytotoxicity (GI50) Colon HCT-116
[2] = read-out: Cytotoxicity (GI50) MGM
[3] = semiquantitative scale, in duplicate, Table 1, read-out: Enzyme Inhibitory Activity Tdp1
[4] = semiquantitative scale, in duplicate, Table 1, read-out: Enzyme Inhibitory Activity Tdp2
[5] = determined in duplicate, Table 2, read-out: Enzyme Inhibitory Activity Tdp2 (IC50)
[6] = determined in duplicate, Table 2, read-out: Enzyme Inhibitory Activity Tdp1 (IC50)

Chain of Tdp1 (Q9NUW8 whole entry): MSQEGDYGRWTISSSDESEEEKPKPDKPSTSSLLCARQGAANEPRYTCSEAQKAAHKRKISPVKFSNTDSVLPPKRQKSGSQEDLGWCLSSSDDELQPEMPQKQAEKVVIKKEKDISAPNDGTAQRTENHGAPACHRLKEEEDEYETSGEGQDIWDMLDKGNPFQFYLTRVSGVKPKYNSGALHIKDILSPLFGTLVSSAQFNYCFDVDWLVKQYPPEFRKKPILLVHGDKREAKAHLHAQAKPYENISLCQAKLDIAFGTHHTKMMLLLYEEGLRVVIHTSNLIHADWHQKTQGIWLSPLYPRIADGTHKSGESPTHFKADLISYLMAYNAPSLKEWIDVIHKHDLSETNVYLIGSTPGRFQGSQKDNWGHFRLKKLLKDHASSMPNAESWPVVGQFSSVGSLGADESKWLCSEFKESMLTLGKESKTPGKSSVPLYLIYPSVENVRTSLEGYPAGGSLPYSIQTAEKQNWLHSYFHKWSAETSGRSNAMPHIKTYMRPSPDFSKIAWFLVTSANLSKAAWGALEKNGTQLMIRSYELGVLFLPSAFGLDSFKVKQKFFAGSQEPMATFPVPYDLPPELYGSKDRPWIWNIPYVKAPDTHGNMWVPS

melting point | Enzyme Inhibitory Activity Top1 (Top1; Table 1) | Top1 inhibitory activity level (Top1) | IC50 (Tdp1; [3]) | IC50 (recombinant human TDP2; [4]) | Structure (SMILES) | GI50 [1, 2] | GI50 ([1]; read-out: MGM (GI50 mean graph midpoint)) | GI50 (MCF-7) | GI50 (OVCAR-3) | GI50 (SF-539) | GI50 (HOP-62) | GI50 (UACC-62) | GI50 (SN12C) | Enzyme Inhibitory Activity Top1 (Top1; Table 2) | GI50 (DU-145) | IC50 (Tdp1; read-out: Enzyme Inhibitory Activity Tdp1 (IC50)) | GI50 (HCT-116) | IC50 (recombinant human TDP2; [5]) | cytotoxicity in the one-concentration preliminary testing ([1]; NCI-60 initial 1-concentration test) | IC50 (Tdp1; [6])
214 to 216 °C | +++ | +++ | > 111 µM | > 111 µM | COc1cnc2c(c1)C(=O)c1c-2n(CCCN2CCN(CCO)CC2)c(=O)c2cc([N+](=O)[O-])ccc12 [Compound 16, 7-Aza-5,6-dihydro-6-[3-(4-(2-hydroxyethyl)piperazin-1-yl)propyl]-9-methoxy-3-nitro-5,11-dioxo-11H-indeno[1,2-c]isoquinoline] | 1.66 µM | 1.65 µM | 0.142 µM | 1.46 µM | 1.7 µM | 2.76 µM | 1.22 µM |  |  |  |  |  |  |  | 
248 to 250 °C | ++ | ++ | 1 to 12 µM | 37 to 111 µM | COc1cnc2c(c1)C(=O)c1c-2n(CCCN2CCCC2)c(=O)c2cc([N+](=O)[O-])ccc12 [Compound 8, 7-Aza-5,6-dihydro-6-[3-(4-pyrrolidine-1-yl)propyl]-9-methoxy-3-nitro-5,11-dioxo-11H-indeno[1,2-c]isoquinoline] | 0.045 µM |  | < 0.01 µM | 0.059 µM | 0.031 µM | < 0.01 µM | 0.015 µM | 0.036 µM |  |  |  |  |  |  | 
278 to 280 °C | ++++ | ++++ | 12 to 37 µM | 37 to 111 µM | COc1cnc2c(c1)C(=O)c1c-2n(CCCNC(C)C)c(=O)c2cc([N+](=O)[O-])ccc12 [Compound 14, 7-Aza-5,6-dihydro-6-[3-(isopropylamino)propyl]-9-methoxy-3-nitro-5,11-dioxo-11H-indeno[1,2-c]isoquinoline] | 0.058 µM |  | 0.012 µM | 0.082 µM | 0.051 µM | 0.085 µM | 0.019 µM | 0.039 µM |  |  |  |  |  |  | 
175 to 177 °C | ++++ | ++++ | 1 to 12 µM | 12 to 37 µM | COc1cnc2c(c1)C(=O)c1c-2n(CCCNC2=NCCS2)c(=O)c2cc([N+](=O)[O-])ccc12 [Compound 12, 7-Aza-5,6-dihydro-6-[3-((4,5-dihydrothiazol-2-yl)amino)propyl]-9-methoxy-3-nitro-5,11-dioxo-11H-indeno[1,2-c]isoquinoline] | 0.058 µM |  | < 0.01 µM | 0.137 µM | 0.036 µM | 0.014 µM | < 0.01 µM | < 0.01 µM |  |  |  |  |  |  | 
211 to 213 °C | ++ | ++ | 12 to 37 µM | 12 to 37 µM | COc1cnc2c(c1)C(=O)c1c-2n(CCCN2CCN(C)CC2)c(=O)c2cc([N+](=O)[O-])ccc12 [Compound 9, 7-Aza-5,6-dihydro-6-[3-(3H-methylpiperazine-1-yl)propyl]-9-methoxy-3-nitro-5,11-dioxo-11H-indeno[1,2-c]isoquinoline] | 0.562 µM |  | 0.016 µM | 0.171 µM | 0.191 µM | 0.081 µM | 0.183 µM | 0.214 µM |  |  |  |  |  |  | 
214 to 216 °C | +++ | +++ | 12 to 37 µM | 37 to 111 µM | COc1cnc2c(c1)C(=O)c1c-2n(CCCNCCN2CCOCC2)c(=O)c2cc([N+](=O)[O-])ccc12 [Compound 13, 7-Aza-5,6-dihydro-9-methoxy-6-[3-((2-morpholinoethyl)amino)propyl]-3-nitro-5,11-dioxo-11H-indeno[1,2-c]isoquinoline] | 0.177 µM |  | 0.032 µM | 0.315 µM | 0.311 µM | 0.15 µM | 0.044 µM | 0.08 µM |  |  |  |  |  |  | 
 |  |  |  |  | COc1cnc2c(c1)C(=O)c1c-2n(CCCN2CCNCC2)c(=O)c2cc(Cl)ccc12 [Compound 16e, 3-Chloro-9-methoxy-6-(3-(piperazin-1-yl)propyl)-5H-pyrido[3′,2′:4,5]cyclopenta[1,2-c]isoquinoline-5,11(6H)-dione] | 0.58 µM |  | 0.089 µM | 1.43 µM | 1.33 µM | 0.2 µM | 1.43 µM | 0.489 µM | + | 0.242 µM | 20.2 ± 3.7 µM | 0.298 µM | > 111 µM |  | 
258 to 260 °C | ++ | ++ | 1 to 12 µM | 1 to 12 µM | COc1cnc2c(c1)C(=O)c1c-2n(CCCN2CCC(N)CC2)c(=O)c2cc([N+](=O)[O-])ccc12 [Compound 17, 6-[3-(4-Aminopiperidin-1-yl)propyl]-7-aza-5,6-dihydro-9-methoxy-3-nitro-5,11-dioxo-11H-indeno[1,2-c]isoquinoline] |  |  |  |  |  |  |  |  |  |  |  |  |  | low cytotoxicity | 
 |  |  |  |  | COc1cnc2c(c1)C(=O)c1c-2n(CCCN2CCC(O)CC2)c(=O)c2cc(F)ccc12 [Compound 17d, 3-Fluoro-6-(3-(4-hydroxypiperidin-1-yl)propyl)-9-methoxy-5H-pyrido[3′,2′:4,5]-cyclopenta[1,2-c]-isoquinoline-5,11(6H)-dione] | 0.199 µM |  | 0.031 µM | 0.254 µM | 0.295 µM | 0.142 µM | 0.24 µM | 0.189 µM | + | 0.174 µM |  | 0.089 µM | > 111 µM |  | > 111 µM
 |  |  |  |  | COc1cnc2c(c1)C(=O)c1c-2n(CCCN2CCOCC2)c(=O)c2cc(F)ccc12 [Compound 17a, 3-Fluoro-9-methoxy-6-(3-morpholinopropyl)-5H-pyrido[3′,2′:4,5]cyclopenta[1,2c]-isoquinoline-5,11(6H)-dione] | 0.269 µM |  | 0.044 µM | 0.25 µM | 0.228 µM | 0.187 µM | 0.235 µM | 0.32 µM | +++ | 0.341 µM |  | 0.115 µM | > 111 µM |  | > 111 µM
